Results from US20250290117A1, “MOLECULAR PHENOTYPIC ANTIMICROBIAL SUSCEPTIBILITY TESTING” (priority 2024, published 2025).

Legend:
[1] = system: E. coli; assay: Molecular phenotypic antimicrobial susceptibility test, specimen with two detected pathogens incubated together without isolation; assay type: cell-based, Escherichia coli; settings: E. coli in specimen with two detected pathogens (E. coli and M. morganii) incubated together; for Ct of Sensitive Breakpoint: Ct of controls (average) 15.93; for Molecular Antimicrobial Susceptibility Result: at sensitive breakpoint
Description: Detection of Molecular Phenotypic Antimicrobial Susceptibility. Disclosed herein are the methods for the detection of phenotypic antimicrobial susceptibility via molecular methods. The present invention describes how a specimen 100 with a known microbial load is incubated and then exposed to a panel of antimicrobial agents to determine sensitivity (prevention of growth) or resistance (allowance of growth) to the specific antimicrobial agents tested utilizing molecular methods.
Sample Collection. Specimens 100 are collected from patients using sterile collection processes that are employed in routine clinical care. Specimens are transported to the testing facility in boric acid preservative. Specimens 100 are subsequently divided into a first sample 104 and a second sample 108.
Preparation of the Specimens for Testing. The specimens 100 are put through a pathogen identification process using PCR technology (e.g., using the first sample 104). The process for pathogen isolation includes steps of harvesting the pathogen (e.g., via centrifugation), isolating pathogen DNA via a DNA isolation and/or purification kit, and performing PCR on the pathogen DNA via PCR components (e.g., primers, enzymes, buffers) as would be known to the skilled artisan. Simultaneously, an additional aliquot of the same specimen (e.g., the second sample 108) is placed with liquid culture media and incubated for 4-6 hours. This aliquot is used for antimicrobial susceptibility testing if indicated based on the pathogen detection results. After pathogen identification is completed and if more than 10,000 cells/mL of bacteria (e.g., eligible bacteria) are detected in the source specimen, the second sample 108 then enters the antimicrobial susceptibility phase of testing. Specimens 100 with lower pathogen loads could also be utilized in the antibiotic susceptibility phase of testing with or without a longer incubation period.
Preparation of Antimicrobial Susceptibility Testing Plates. Antimicrobial solutions are prepared at known concentrations. The specific antimicrobials and their concentrations are selected based on the pathogen of interest and the described antimicrobial resistance breakpoints for that specimen pathogen and antimicrobial combination. These antimicrobials have been selected based on those commonly utilized by healthcare providers in routine clinical care for the specific type of suspected infection. The number and types of antimicrobials utilized can be customized based on the infection source, pathogen detected, patient-specific factors such as allergies or other health conditions (e.g., chronic kidney disease or concurrent medication use), or healthcare provider preferences such as antimicrobial availability or cost.
The antimicrobial solutions are prepared in liquid culture media (such as Muller Hinton Broth) to achieve the desired antimicrobial concentration and are then stored at −80° C. until use. For a given specimen, each antimicrobial is tested at a single or multiple antimicrobial concentration(s) which is its established breakpoints for sensitivity. The antimicrobial solutions are prepared and plated out for each specific pathogen. This allows ease of use on the day of testing after defrosting the plate 112. Table 1, which illustrates the results of molecular phenotypic antimicrobial susceptibility testing when more than one organism is present in the source specimen, provides an example of an antimicrobial plate 112 prepared for this purpose. Of note, control wells containing only culture media are present on all plates 112. This allows for evaluation of pathogen load when no antimicrobial is present.
Specimen Exposure to Antimicrobial Agents. The 1 mL aliquot of the specimen 100 previously mixed with culture media and incubated is obtained. Using optical density measurements as a guide, the specimen 100 is diluted to 0.5 McFarland. […]

[2] = system: pathogen of the specimen; assay: Molecular phenotypic antimicrobial susceptibility test with direct PCR at various incubation timepoints (Table 7); assay type: cell-based
Method in brief: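 Specimens with known microbial load are cultured, diluted to 0.5 McFarland using optical density, then exposed to antimicrobials prepared in liquid culture media (e.g., Muller Hinton Broth) at their established sensitivity breakpoint concentrations. After incubation, samples are lysed with buffer in a thermal cycler and analyzed by direct semi-quantitative PCR, with antimicrobial-free control wells serving as the susceptibility threshold.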

[3] = E. coli isolate 1189, antibiotic incubation time 4 hours
[4] = E. coli isolate 1189, antibiotic incubation time 4 hours, control average Ct […]
[5] = E. coli isolate 1189, antibiotic incubation time 6 hours
[6] = E. coli isolate 1189, antibiotic incubation time 6 hours, control average Ct 16.992
[7] = E. coli isolate 1189, antibiotic incubation time 8 hours
[8] = E. coli isolate 1189, antibiotic incubation time 8 hours, control average Ct […]
[9] = E. coli isolate 1189, antibiotic incubation time 10 hours
[10] = E. coli isolate 1189, antibiotic incubation time 10 hours, control average Ct 15.995
[11] = E. coli isolate 1189, antibiotic incubation time 12 hours
[12] = E. coli isolate 1189, antibiotic incubation time 12 hours, control average Ct 15.495
[13] = E. coli isolate 1189, antibiotic incubation time 14 hours
[14] = E. coli isolate 1189, antibiotic incubation time 14 hours, control average Ct 15.826
[15] = E. coli isolate 1189, antibiotic incubation time 16 hours
[16] = E. coli isolate 1189, antibiotic incubation time 16 hours, control average Ct 14.880

| Molecule | Ct of Sensitive Breakpoint [1] | Molecular Antimicrobial Susceptibility Result [1] | Molecular Antimicrobial Susceptibility Result [2, 3] | Ct at Sensitive Breakpoint [2, 4] | Molecular Antimicrobial Susceptibility Result [2, 5] | Ct at Sensitive Breakpoint [2, 6] | Molecular Antimicrobial Susceptibility Result [2, 7] | Ct at Sensitive Breakpoint [2, 8] | Molecular Antimicrobial Susceptibility Result [2, 9] | Ct at Sensitive Breakpoint [2, 10] | Molecular Antimicrobial Susceptibility Result [2, 11] | Ct at Sensitive Breakpoint [2, 12] | Molecular Antimicrobial Susceptibility Result [2, 13] | Ct at Sensitive Breakpoint [2, 14] | Molecular Antimicrobial Susceptibility Result [2, 15] | Ct at Sensitive Breakpoint [2, 16] |
| --- | --- | --- | --- | --- | --- | --- | --- | --- | --- | --- | --- | --- | --- | --- | --- | --- |
| C[C@@H](O)[C@H]1C(=O)N2C(C(=O)O)=C(S[C@@H]3CN[C@H](C(=O)N(C)C)C3)[C@H](C)[C@H]12 [Meropenem] | 25.70 | Sensitive (Antimicrobial wells with pathogen load detected below the control wells (typically >2 cycle thresholds later) may be reported as Sensitive) | Sensitive (Antimicrobial wells with pathogen load detected below the control wells (typically >2 cycle thresholds later) may be reported as Sensitive) | 22.751 | Sensitive (Antimicrobial wells with pathogen load detected below the control wells (typically >2 cycle thresholds later) may be reported as Sensitive) | 22.884 | Sensitive (Antimicrobial wells with pathogen load detected below the control wells (typically >2 cycle thresholds later) may be reported as Sensitive) | 23.187 | Sensitive (Antimicrobial wells with pathogen load detected below the control wells (typically >2 cycle thresholds later) may be reported as Sensitive) | 23.901 | Sensitive (Antimicrobial wells with pathogen load detected below the control wells (typically >2 cycle thresholds later) may be reported as Sensitive) | 26.014 | Sensitive (Antimicrobial wells with pathogen load detected below the control wells (typically >2 cycle thresholds later) may be reported as Sensitive) | 26.211 | Sensitive (Antimicrobial wells with pathogen load detected below the control wells (typically >2 cycle thresholds later) may be reported as Sensitive) | 27.457 |
| O=C1CN(/N=C/c2ccc([N+](=O)[O-])o2)C(=O)N1 [Nitrofurantoin] | 27.36 | Sensitive (Antimicrobial wells with pathogen load detected below the control wells (typically >2 cycle thresholds later) may be reported as Sensitive) | Sensitive (Antimicrobial wells with pathogen load detected below the control wells (typically >2 cycle thresholds later) may be reported as Sensitive) | 27.265 | Sensitive (Antimicrobial wells with pathogen load detected below the control wells (typically >2 cycle thresholds later) may be reported as Sensitive) | 27.430 | Sensitive (Antimicrobial wells with pathogen load detected below the control wells (typically >2 cycle thresholds later) may be reported as Sensitive) | 28.823 | Sensitive (Antimicrobial wells with pathogen load detected below the control wells (typically >2 cycle thresholds later) may be reported as Sensitive) | 27.170 | Sensitive (Antimicrobial wells with pathogen load detected below the control wells (typically >2 cycle thresholds later) may be reported as Sensitive) | 26.777 | Sensitive (Antimicrobial wells with pathogen load detected below the control wells (typically >2 cycle thresholds later) may be reported as Sensitive) | 26.788 | Sensitive (Antimicrobial wells with pathogen load detected below the control wells (typically >2 cycle thresholds later) may be reported as Sensitive) | 24.548 |
| Gentamicin | 17.37 | Resistant | Sensitive (Antimicrobial wells with pathogen load detected below the control wells (typically >2 cycle thresholds later) may be reported as Sensitive) | 24.224 | Sensitive (Antimicrobial wells with pathogen load detected below the control wells (typically >2 cycle thresholds later) may be reported as Sensitive) | 25.270 | Sensitive (Antimicrobial wells with pathogen load detected below the control wells (typically >2 cycle thresholds later) may be reported as Sensitive) | 25.454 | Sensitive (Antimicrobial wells with pathogen load detected below the control wells (typically >2 cycle thresholds later) may be reported as Sensitive) | 25.318 | Sensitive (Antimicrobial wells with pathogen load detected below the control wells (typically >2 cycle thresholds later) may be reported as Sensitive) | 25.018 | Sensitive (Antimicrobial wells with pathogen load detected below the control wells (typically >2 cycle thresholds later) may be reported as Sensitive) | 24.069 | Sensitive (Antimicrobial wells with pathogen load detected below the control wells (typically >2 cycle thresholds later) may be reported as Sensitive) | 24.816 |
| Piperacillin/Tazobactam | 27.51 | Sensitive (Antimicrobial wells with pathogen load detected below the control wells (typically >2 cycle thresholds later) may be reported as Sensitive) | Sensitive (Antimicrobial wells with pathogen load detected below the control wells (typically >2 cycle thresholds later) may be reported as Sensitive) | 20.904 | Sensitive (Antimicrobial wells with pathogen load detected below the control wells (typically >2 cycle thresholds later) may be reported as Sensitive) | 21.624 | Sensitive (Antimicrobial wells with pathogen load detected below the control wells (typically >2 cycle thresholds later) may be reported as Sensitive) | 21.570 | Sensitive (Antimicrobial wells with pathogen load detected below the control wells (typically >2 cycle thresholds later) may be reported as Sensitive) | 22.310 | Sensitive (Antimicrobial wells with pathogen load detected below the control wells (typically >2 cycle thresholds later) may be reported as Sensitive) | 22.359 | Sensitive (Antimicrobial wells with pathogen load detected below the control wells (typically >2 cycle thresholds later) may be reported as Sensitive) | 24.257 | Sensitive (Antimicrobial wells with pathogen load detected below the control wells (typically >2 cycle thresholds later) may be reported as Sensitive) | 24.143 |
